Experiments:
[1] = system: Corn; experiment: Greenhouse test, combination of Procedures II and III: insecticide in-furrow or in cover layer, herbicide and antidote incorporated in cover layer (Examples 1-3, 6; Tables 1-3, 6); format: in vivo; conditions: for % Injury Corn / % Corn Injury PN 3320 / % Corn Injury PN 3377: 3 weeks; for Percent Injury Corn: 7 weeks
[2] = system: velvetleaf (Abutilon theophrasti); experiment: Greenhouse test, combination of Procedures II and III (Examples 1, 2; Tables 1, 2); format: in vivo; conditions: for % Injury VELE: 3 weeks; for Percent Injury VELE: 7 weeks
[3] = system: VELE (velvetleaf); experiment: Greenhouse test Procedure II (Example 4; Table 4); format: in vivo, Abutilon theophrasti; conditions: 3 weeks
In short: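 Herbicide, insecticide and antidote in acetone were track-sprayed sequentially onto a soil cover layer, incorporated and spread over seeded beds in silt loam. Initial overhead irrigation equal to 0.6 cm rainfall, then sub-irrigation in the greenhouse. Injury was rated 3 weeks after treatment against untreated and herbicide-only controls.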

[4] = system: Corn; experiment: Field trials, PPI, PRE and POE herbicide applications with terbufos (Example 7); format: in vivo; conditions: mean of five locations, soil-applied insecticide prior to planting
Description: This example summarizes the results of one series of field trials from a plurality of locations and soil types wherein test chemicals were applied in various modes including pre-plant incorporated (PPI), post emergence (POE) and preemergence (PRE) with and without a safener (antidote). Test Chemicals were Herbicide Nos 1, 2, 3 and 7-9; Insecticide No. 1 and Antidote No. 1.
In these trials Insecticide No. 1 (terbufos) was T-banded or furrow applied at labeled rates prior to planting corn. PPI herbicide treatments were applied prior to insecticide applications; PRE treatments were applied after the insecticide application either prior to or after seeding the corn. POE herbicide applications were made at 2 corn-growth stages, i.e., early post (EP) at the 2-3 leaf stage and late post (LP) at the 4-7 leaf stage. Plots were small plot with 3 replications in a randomized complete block design. In the PRE and PPI herbicide treatments, Antidote No. 1 was applied as a tankmix in both treatments. In the POE herbicide treatments, that antidote was applied as a tank mix with the herbicide at the EP and LP stages.

[5] = Ex. 2: Insecticide 1 0.11 kg/305m + Herbicide 1 0.14 Kg/Ha
[6] = Ex. 2: Insecticide 1 0.11 kg/305m + Herbicide 1 0.56 Kg/Ha
[7] = Ex. 2: Insecticide 1 0.23 Kg/305m + Herbicide 1 0.14 + Herbicide 2 4.48 Kg/Ha
[8] = Ex. 2: Insecticide 1 0.23 Kg/305m + Herbicide 1 0.14 Kg/Ha
[9] = Ex. 2: Insecticide 1 0.23 Kg/305m + Herbicide 1 0.56 Kg/Ha
[10] = Ex. 2: Insecticide 2 3.36 Kg/Ha + Herbicide 1 0.14 + Herbicide 2 4.48 Kg/Ha
[11] = Ex. 6: Insecticide 1 0.23 Kg/305m + Herbicide 1 0.14 Kg/Ha
[12] = Ex. 6: Insecticide 1 0.23 Kg/305m + Herbicide 1 0.56 Kg/Ha
[13] = Ex. 6: Insecticide 2 0.23 Kg/305m + Herbicide 1 0.14 Kg/Ha
[14] = Ex. 6: Insecticide 2 0.23 Kg/305m + Herbicide 1 0.56 Kg/Ha
[15] = Insecticide 1 0.23 kg/305m + Herbicide 1 0.14 Kg/Ha
[16] = Insecticide 1 0.23 kg/305m + Herbicide 1 0.56 Kg/Ha
[17] = Insecticide 1 0.23 kg/305m + Herbicide 1 2.24 Kg/Ha
[18] = Insecticide 2 3.36 kg/ha + Herbicide 1 0.14 Kg/Ha
[19] = Insecticide 2 3.36 kg/ha + Herbicide 1 0.56 Kg/Ha
[20] = Insecticide 2 3.36 kg/ha + Herbicide 1 2.24 Kg/Ha

SMILES: COC(=O)c1c(Cl)nn(C)c1S(=O)(=O)NC(=O)Nc1nc(OC)cc(OC)n1 [Herbicide No. 1, N-[(4,6-dimethoxypyrimidin-2-yl)aminocarbonyl]-3-chloro-4-methoxycarbonyl-5-sulfonamide, reference compound]
- % Injury Corn ([1]; Ex. 2: Herbicide 1 0.14 Kg/Ha): 4%
- % Injury Corn ([1]; Ex. 2: Herbicide 1 0.56 Kg/Ha): 58%
- injury to corn ([1]; Ex. 2: Herbicide No. 1 0.14 kg/ha + Insecticide No. 2, no antidote): 65%
- % Injury Corn [1, 5]: 83%
- % Injury Corn [1, 6]: 93%
- % Injury Corn [1, 7]: 90%
- % Injury Corn [1, 8]: 83%
- % Injury Corn [1, 9]: 96%
- % Injury Corn [1, 10]: 83%
- % Injury Corn ([1]; Ex. 3: Herbicide 1 0.14 Kg/Ha): 10%
- % Injury Corn ([1]; Ex. 3: Herbicide 1 0.56 Kg/Ha): 63%
- % Injury Corn ([1]; Ex. 3: Insecticide 3 (227 g) + Herbicide 1 0.14 + Herbicide 2 4.48 Kg/Ha): 73%
- % Injury Corn ([1]; Ex. 3: Insecticide 3 (227g) + Herbicide 1 0.14 Kg/Ha): 45%
- % Injury Corn ([1]; Ex. 3: Insecticide 3 (227g) + Herbicide 1 0.56 Kg/Ha): 93%
- % Injury Corn ([1]; Ex. 3: Insecticide 4 (227g) + Herbicide 1 0.14 + Herbicide 2 4.48 Kg/Ha): 88%
- % Injury Corn ([1]; Ex. 3: Insecticide 4 (227g) + Herbicide 1 0.14 Kg/Ha): 55%
- % Injury Corn ([1]; Ex. 3: Insecticide 4 (227g) + Herbicide 1 0.56 Kg/Ha): 45%
- % Corn Injury PN 3320 ([1]; Ex. 6: Herbicide 1 0.14 Kg/Ha): 85%
- % Corn Injury PN 3377 ([1]; Ex. 6: Herbicide 1 0.14 Kg/Ha): 12%
- % Corn Injury PN 3320 ([1]; Ex. 6: Herbicide 1 0.56 Kg/Ha): 88%
- % Corn Injury PN 3377 ([1]; Ex. 6: Herbicide 1 0.56 Kg/Ha): 23%
- % Corn Injury PN 3320 [1, 11]: 95%
- % Corn Injury PN 3377 [1, 11]: 78%
- % Corn Injury PN 3320 [1, 12]: 95%
- % Corn Injury PN 3377 [1, 12]: 90%
- % Corn Injury PN 3320 [1, 13]: 85%
- % Corn Injury PN 3377 [1, 13]: 48%
- % Corn Injury PN 3320 [1, 14]: 88%
- % Corn Injury PN 3377 [1, 14]: 90%
- Percent Injury Corn ([1]; Herbicide 1 0.14 Kg/Ha): 18%
- Percent Injury Corn ([1]; Herbicide 1 0.56 Kg/Ha): 58%
- Percent Injury Corn ([1]; Herbicide 1 2.24 Kg/Ha): 85%
- Percent Injury Corn [1, 15]: 85%
- Percent Injury Corn [1, 16]: 97%
- Percent Injury Corn [1, 17]: 95%
- Percent Injury Corn [1, 18]: 60%
- Percent Injury Corn [1, 19]: 90%
- Percent Injury Corn [1, 20]: 95%
- % Injury VELE ([2]; Ex. 2: Herbicide 1 0.14 Kg/Ha): 89%
- % Injury VELE ([2]; Ex. 2: Herbicide 1 0.56 Kg/Ha): 93%
- % Injury VELE [2, 5]: 93%
- % Injury VELE [2, 6]: 94%
- % Injury VELE [2, 7]: 95%
- % Injury VELE [2, 8]: 83%
- % Injury VELE [2, 9]: 95%
- % Injury VELE [2, 10]: 88%
- Percent Injury VELE ([2]; Herbicide 1 0.14 Kg/Ha): 90%
- Percent Injury VELE ([2]; Herbicide 1 0.56 Kg/Ha): 95%
- Percent Injury VELE ([2]; Herbicide 1 2.24 Kg/Ha): 92%
- Percent Injury VELE [2, 15]: 90%
- Percent Injury VELE [2, 16]: 92%
- Percent Injury VELE [2, 17]: 95%
- Percent Injury VELE [2, 18]: 78%
- Percent Injury VELE [2, 19]: 92%
- Percent Injury VELE [2, 20]: 92%
- % Injury VELE ([3]; Herbicide 1 0.07 kg/Ha): 20%
- % Injury VELE ([3]; Herbicide 1 0.14 kg/Ha): 67%
- % Injury VELE ([3]; Insecticide 2 3.36 + Herbicide 1 0.07 kg/Ha): 10%
- % Injury VELE ([3]; Insecticide 2 3.36 + Herbicide 1 0.14 kg/Ha): 20%
- interaction with Insecticide No. 1 after POE herbicide [4]: insignificant interaction
